Experimental data reported in US6548688B1, “Diammonium ruthenium diethylenethriaminepentaacetate or hydrates thereof and process for the preparation of both” (Chubu Chelest Co., Ltd., priority 1999, dated 2003).
“Also recorded” adds a separate entry of the source. Where two headings read alike, the source gives them in different places.

Legend:
Type in all cases: physicochemical
[1] = pH of 5% aqueous solution
solubility to water = conditions: 25° C.
[2] = stability in the atmospheric condition and in aqueous solution

O=C([O-])CN(CCN1CCN2CC(=O)[O][Ru]([O]C(=O)C1)[O]C(=O)C2)CC(=O)[O-] [diammonium ruthenium diethylenetriaminepentaacetate]
pH of 5% aqueous solution [1]: 5.1
pH of 5% aqueous solution ([1]; listed as DTPA.Ru(III).(NH4)2.2H2O): 5.10
solubility to water (solubility to water): 53 mass %
solubility (solubility to water; crystals of Example 1): 53%
precipitation in aqueous solution on change of pH ([2]; acid or alkali added into the aqueous solution to change pH): does not precipitate; also recorded: without precipitating
storage stability (decomposition or transformation) ([2]; in the atmospheric condition and in the aqueous solution): can be stably preserved; also recorded: not decomposed
